Activity calls are given as the source filed them. No cut-off for these calls is given here.
Species on record: Cavia porcellus
Assay: Antagonism ([…] blocking activity) of isoprenaline-induced positive inotropic effect in guinea pig left atrium; Inactive
Assay type: functional
Settings: Cardiac atrium

SMILES	pA2
O[C@H](COCCCc1ccccc1)[C@H]1CCCCN1 (relative stereo)	inactive

Species on record: Cavia porcellus
Assay: Selectivity of inhibition at beta-1 versus beta-2 adrenergic receptors, […]
Settings: not given

Ratio	SMILES
2.2	CC(C)N(C)CC(O)COc1ccccc1 (stereo not drawn)
0.5	CC(C)NCC(O)COCCCc1ccccc1 (stereo not drawn)
1	CC(C)NCC(O)COCc1ccccc1 (stereo not drawn)
0.9	CC(C)NCC(O)COc1ccc2ccccc2c1 (stereo not drawn)
8.1	CC(C)NCC(O)COc1ccccc1 (stereo not drawn)
0.7	CN1CCCC[C@@H]1[C@H](O)COc1ccccc1
1.8	Cc1ccc(OCC(O)CNC(C)C)cc1 (stereo not drawn)
6.5	Cc1cccc(OCC(O)CNC(C)C)c1 (stereo not drawn)
1.4	CN1CCCC[C@H]1[C@H](O)COc1ccccc1 (relative stereo)
0.8	Cc1ccc(OC[C@@H](O)[C@@H]2CCCCN2)cc1 (relative stereo)
1.2	Cc1ccc(OC[C@@H](O)[C@H]2CCCCN2)cc1 (relative stereo)
0.03	Cc1cccc(OC[C@@H](O)[C@@H]2CCCCN2)c1 (relative stereo)
0.5	Cc1cccc(OC[C@@H](O)[C@H]2CCCCN2)c1 (relative stereo)
0.1	O[C@H](COCCCc1ccccc1)[C@@H]1CCCCN1 (relative stereo)
2.5	O[C@H](COCc1ccccc1)[C@@H]1CCCCN1 (relative stereo)
0.4	O[C@H](COCc1ccccc1)[C@H]1CCCCN1 (relative stereo)
1.8	O[C@H](COc1ccc2ccccc2c1)[C@@H]1CCCCN1 (relative stereo)
2	O[C@H](COc1ccc2ccccc2c1)[C@H]1CCCCN1 (relative stereo)
0.4	O[C@H](COc1cccc2ccccc12)[C@@H]1CCCCN1 (relative stereo)
0.7	O[C@H](COc1cccc2ccccc12)[C@H]1CCCCN1 (relative stereo)
1.7	O[C@H](COc1ccccc1)[C@@H]1CCCCN1 (relative stereo)
0.7	O[C@H](COc1ccccc1)[C@H]1CCCCN1 (relative stereo)
